According to patent US20050209162A1, “Methods for monitoring IL-18” (priority 2003, published 2005):

Experiments:
ICE = target: T1, ICE (Homo sapiens, UniProt P29466); experiment: ICE inhibition constant (Ki); format: biochemical
T1 sequence (P29466 120-297 limits assumed): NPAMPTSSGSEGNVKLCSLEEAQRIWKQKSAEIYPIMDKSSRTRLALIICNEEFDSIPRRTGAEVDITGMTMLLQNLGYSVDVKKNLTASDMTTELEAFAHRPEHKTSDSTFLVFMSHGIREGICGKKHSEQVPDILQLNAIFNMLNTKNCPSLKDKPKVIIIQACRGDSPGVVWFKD
T1 sequence (P29466 317-404 limits assumed): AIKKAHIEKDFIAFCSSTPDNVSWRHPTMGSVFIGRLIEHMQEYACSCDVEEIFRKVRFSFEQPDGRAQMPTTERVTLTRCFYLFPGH

IL-18 = experiment: Serum IL-18 levels (sandwich IL-18 ELISA) in healthy male subjects treated with oral Compound A for 14 days; format: in vivo, human; conditions: 900 mg q8 h oral
Experimental: Compound A was evaluated in a double-blind, randomized, placebo-controlled, oral dose, sequential group study in healthy male subjects. 9 subjects received 900 mg Compound A 14 days. 3 subjects received placebo treatment. Doses were administered three times a day at 8-hour intervals on Days 1 to 13 inclusive, and once in the morning of Day 14. All doses were administered in the fasted state.
Blood samples (1×3.5 mL) were taken by venepuncture or cannulation of a forearm vein(s).
Blood samples were collected into 3.5 mL SST Vacutainer® tubes (Becton Dickinson UK Ltd., Oxford) and, after mixing, stored at ambient temperature for at least 30 min prior to centrifugation. The samples were centrifuged, within 1 hour of collection, at 1500 g for 10 minutes at approximately 4° C. For each sample, the separated serum was transferred into two 5 mL suitably labelled polypropylene tubes (at least 0.6 mL in each tube), and stored within 2 hours of collection, at approximately −70° C. the laboratory for IL-18 assay.
IL-18 was assayed using a sandwich IL-18 ELISA technique (Human IL-18 ELISA Kit, Medical and Biological Laboratories, Nagoya, Japan). Standards, Controls and Samples were incubated in wells coated with an anti-human IL-18 monoclonal antibody. […] The developed color was then measured at an OD of 450 using a 630 nm reference filter.

[1] = Absorption and conversion to Compound B upon oral administration; format: in vivo; conditions: converted into Compound B

| SMILES | Type of ICE inhibition (ICE) | inhibition of serum IL-18 concentrations (in words) (IL-18; 14-day treatment period) | inhibition at 900 mg (IL-18; Homo sapiens, 336 h, over 14 days of treatment, read-out: inhibition of serum IL-18 median levels) [%] | absorption upon oral administration [1] |
| --- | --- | --- | --- | --- |
| CC(C)(C)[C@H](NC(=O)c1ccc(N)c(Cl)c1)C(=O)N1CCC[C@H]1C(=O)N[C@H](C=O)CC(=O)O [Compound B] | selective and reversible ICE inhibitor |  |  |  |
| CCO[C@@H]1OC(=O)C[C@@H]1NC(=O)[C@@H]1CCCN1C(=O)[C@@H](NC(=O)c1ccc(N)c(Cl)c1)C(C)(C)C [Compound A] |  | gradual but marked inhibition | ~60 | rapidly absorbed |
